The values that follow come from patent publication US5891917A, “Certain acrylonitrile-sulfonamide derivatives” (Sugen, Inc., priority 1997, dated 1999).

SMILES strings stand for the structures. Like-named read-outs stand apart in the source and are kept apart here.

The test system of one test is 3T3/HER2 cells. The test can be described thus: 3T3 Growth Assay (3T3/HER2). It counts as cell-based. The source says: (§1) The following examples illustrate the ability of the exemplary compounds to inhibit receptor tyrosine kinases, such as HER2 and/or EGFR. The following target cells were used for cellular kinase assays: NIH3T3 clone C7 (Honegger et al., supra) engineered to over-express human EGF receptor; NIH3T3 cells engineered to over-express a chimeric receptor containing the EGFR extracellular domain and the HER2 intracellular kinase domain; the human mammary carcinoma line BT474 (ATCC HTB2) expressing HER2; and the human glioblastoma line U1242 that expresses PDGFR-beta. Growth assays were carried out using human mammary epithelial SKBR3 (ATCC HTB30) cells (SKBR3 cells over-express HER2), SKOV3 (ATCC HTB77) human ovarian cancer cell line (SKOV3 cells also over-express HER2), A431 cells (A431 cells over-express EGFR) MCF7 human breast carcinoma cells, MCF7 cells overexpressing the HER2 kinase (MCF7-HER2), NIH3T3 cells, and NIH3T3 cells overexpressing the HER2 kinase (3T3-HER2.
The 3T3 growth assay was carried out as follows: […]
(1) HER2C7 (engineered to express HER2) and NIH3T3C7 (as the control) cells are used for this assay. NIH3T3C7 cells are seeded at 2500 cells/well, […] in 10% CS+2 mM GLN DMEM, in a 96 well plate; HER2C7 cells are seeded at 6000 cells/well, 100 μl/well in 2% FBS+2 mM GLN DMEM, in a 96 well plate. Cells are incubated at 37° C., 5% CO2 overnight to allow for cell attachment to the plate;
(2) The […] compound is added to the cells at day 2. The compounds are prepared in the appropriate growth medium (10% CS+2 mM) GLN DMEM for NIH3T3C7 cells; 2% FBS+2 mM GLN DMEM for HER2C7 cells) in a 96 well plate, and serially diluted. A total of 100 μl/well medium of the diluted compounds is added into the cells. The total volume of each well is 200 μl. Quadruplicates (wells) and 11 concentration points are applied to each compound tested.
(3) After the cells are treated with the compound for 4 days, the cells are washed with PBS and fixed with 200 μl/well ice-cold 10% TCA for one hour at 0°-5° C. condition.
(4) Remove TCA and rinse wells 5 times with deionized water. Dry plates upside down with paper towels. Stain cells with 0.4% SRB at 100 μl/well for 10 minutes.
(5) Pour off SRB and rinse plate 5 times with 1 % acetic acid. Dry plate completely.
(6) Solubilize the dye with 10 mM Tris-base at 100 μl/well for 10 minutes on a shaker.
(7) Read the plate at dual wavelengths at 570 nm and 630 nm on Dynatech Elisa plate reader.

The next test concerns the target T1, HER2 (Homo sapiens, UniProt P04626).
T1 construct: a human breast tumor cell line which expresses high levels of HER2 kinase; endogenous in cells; host or cells: BT-474 human breast tumor cells
In words: HER2-BT474 whole cell ELISA. It counts as cell-based. The conditions noted are these: BT-474 cells.
Source text: as §1
HER2-BT474 assays measuring whole cell HER2 activity was carried out as described below:
1. The cell line used in this assay is BT-474 (ATCC HBT20), a human breast tumor cell line which expresses high levels of HER2 kinase.
2. BT-474 is grown in an incubator with 5% CO2 at 37° C. The growth media is RPMI+10% FBS+GMS-G (Gibco supplement)+Glutamine.
(a) Grow BT474 cells in tissue culture dishes (10 cm, Corning 25020-100) to 80-90% confluence and collect using Trypsin-EDTA (0.25%, GIBCO).
(b) Resuspend the cells in fresh medium and transfer to 96-well tissue culture plates (Corning, 25806-96) at about 25,000-50,000 cells/well (100 μl/well). Incubate the cells in 5% CO2 at 37° C. overnight.
(a) Coat the ELISA plate (Corning 25805-96) with anti HER2 antibody at 0.5 μg/well in 150 μl PBS overnight at 4° C., and seal with parafilm. The antibody coated plates can be used up to 2 weeks, when stored at 4° C.
(b) On the day of use, remove the coating solution, replace with 200 μl of Blocking Buffer, shake the plate, and then remove the blocking buffer and wash the plate just before adding lysate.
(a) […] the drugs in serum-free condition. Before adding drugs, the old media is replaced with serum-free RPMI (90 μl/well)
(b) Dilute drug stock (in 100% DMSO) 1:10 with RPMI, and transfer 10 μl/well of this solution to the cells to achieve a final drug DMSO concentration at 1%. Incubate the cells in 5% CO2 at 37° C.
(c) Prepare fresh cell lysis buffer (HNTG*)
(d) After drug preincubation for two hours remove all the solution from the plate, transfer HNTG* 100 μl/well to the cells, and shake for 10 minutes.
(e) Use a 12-channel pipette to scrape the cells from the plate, and homogenize the lysate by repeat aspiration and dispensing. Transfer all the lysate to the ELISA plate and shake for 1 hour.
(f) Remove the lysate, wash the plate, add anti-pTyr (1:3,000 with TBST) 100 μl/well, and shake for 30 minutes.
(g) Remove anti-pTyr, wash the plate, add goat anti-rabbit IgG conjugated antibody (1:5,000 with TBST) 100 μl/well, and shake for 30 minutes.
(h) Remove anti-rabbit IgG antibody, wash the plate, and add fresh ABTS/H2 O2 (1.2 μl 30% H2 O2 to 10 ml ABTS) 100 μ/well to the plate to start color development, which usually takes 20 minutes.
(I) Measure OD 410 nm, Dynatec MR5000.
(An ELISA detects its analyte on a solid surface through an enzyme-linked reagent.)

[1] abbreviates: read-out: Growth Data: 3T3/HER2 2% FBS.
The mark [2] stands for this setting: read-out: Growth Data: 3T3/HER2 10% FBS.

T1 sequence (P04626 23-1255): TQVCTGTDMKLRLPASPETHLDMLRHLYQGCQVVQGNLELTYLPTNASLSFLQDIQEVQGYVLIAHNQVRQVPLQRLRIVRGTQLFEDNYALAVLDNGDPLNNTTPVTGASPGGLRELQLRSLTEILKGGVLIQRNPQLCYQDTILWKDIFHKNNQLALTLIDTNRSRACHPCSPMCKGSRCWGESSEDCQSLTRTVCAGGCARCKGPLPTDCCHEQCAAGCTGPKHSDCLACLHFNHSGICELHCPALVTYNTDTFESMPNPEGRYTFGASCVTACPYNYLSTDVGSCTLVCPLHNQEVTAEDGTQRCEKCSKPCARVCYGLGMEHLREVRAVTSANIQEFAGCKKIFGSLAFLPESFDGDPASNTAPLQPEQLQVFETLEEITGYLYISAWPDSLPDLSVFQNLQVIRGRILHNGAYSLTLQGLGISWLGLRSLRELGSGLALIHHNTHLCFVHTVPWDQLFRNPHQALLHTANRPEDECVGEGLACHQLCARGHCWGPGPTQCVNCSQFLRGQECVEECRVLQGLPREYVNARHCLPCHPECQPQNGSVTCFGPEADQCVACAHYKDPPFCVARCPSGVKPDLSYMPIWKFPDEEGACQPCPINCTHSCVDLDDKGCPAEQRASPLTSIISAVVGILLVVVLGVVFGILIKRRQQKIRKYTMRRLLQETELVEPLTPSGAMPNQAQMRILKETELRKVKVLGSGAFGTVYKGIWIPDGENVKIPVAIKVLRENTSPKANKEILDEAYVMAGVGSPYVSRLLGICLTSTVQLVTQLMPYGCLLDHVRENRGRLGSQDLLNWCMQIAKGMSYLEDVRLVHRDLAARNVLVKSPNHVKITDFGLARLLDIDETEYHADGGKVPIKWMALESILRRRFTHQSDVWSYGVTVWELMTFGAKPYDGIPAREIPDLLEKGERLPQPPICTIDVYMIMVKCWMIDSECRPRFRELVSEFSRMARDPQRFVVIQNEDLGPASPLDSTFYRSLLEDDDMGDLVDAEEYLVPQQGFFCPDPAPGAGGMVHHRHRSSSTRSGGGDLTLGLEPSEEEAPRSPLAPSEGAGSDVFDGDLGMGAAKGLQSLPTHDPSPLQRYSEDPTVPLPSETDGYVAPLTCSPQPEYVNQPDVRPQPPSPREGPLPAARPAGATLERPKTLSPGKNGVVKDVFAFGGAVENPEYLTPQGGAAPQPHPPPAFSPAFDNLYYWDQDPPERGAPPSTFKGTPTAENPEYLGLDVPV

For `CC(C)(C)c1cc(/C=C(\C#N)S(=O)(=O)c2cccs2)cc(C(C)(C)C)c1O` [Compound 742], the IC50 in the test on 3T3/HER2 cells (setting [1]) was 7 µM; in the test with 3T3/HER2 cells (setting [2]) it was 38 µM; against HER2, 0.2 µM.

Turning to `CC(C)(C)c1cc(/C=C(\C#N)S(=O)(=O)c2ccc(F)cc2)cc(C(C)(C)C)c1O` [Compound 740], the values for the IC50 in the test with 3T3/HER2 cells (setting [1]), with 3T3/HER2 cells (setting [2]) and on HER2 were 3.8 µM, 20 µM and 0.4 µM, respectively.

Turning to `N#C/C(=C\c1ccc(O)cc1Cl)S(=O)(=O)NCc1ccccc1` [Compound 733], the IC50 in the test on 3T3/HER2 cells (setting [1]) is 60 µM; in the test with 3T3/HER2 cells (setting [2]), over 100 µM; on HER2, 5.8 µM.

As to `Cc1cc(/C=C(\C#N)S(=O)(=O)c2ccc(F)cc2)cc(C)c1O` [Compound 744], the IC50 in the test with 3T3/HER2 cells (setting [1]) is over 100 µM; with 3T3/HER2 cells (setting [2]), over 100 µM; at HER2, 4.5 µM.

With `CC(C)c1cc(/C=C(\C#N)S(=O)(=O)c2ccccn2)cc(C(C)C)c1O` [Compound 747], the IC50 with 3T3/HER2 cells (setting [1]) and with 3T3/HER2 cells (setting [2]) was over 100 µM throughout.

For the molecule `CC(C)c1cc(/C=C(\C#N)S(=O)(=O)c2cccs2)cc(C(C)C)c1O` [Compound 737], the IC50 with 3T3/HER2 cells (setting [1]) turned out to be 40 µM; with 3T3/HER2 cells (setting [2]), 90 µM; against HER2, 1 µM.

With `CC(C)c1cc(/C=C(\C#N)S(=O)(=O)Cc2cccc(C(F)(F)F)c2)cc(C(C)C)c1O` [Compound 736], the IC50 in the test on 3T3/HER2 cells (setting [1]) was 18 µM; in the test with 3T3/HER2 cells (setting [2]), 55 µM; on HER2 it was 0.8 µM.

In the case of `CC(C)c1cc(/C=C(\C#N)S(=O)(=O)NCc2ccccc2)cc(C(C)C)c1O` [Compound 732], the results for the IC50 in the test with 3T3/HER2 cells (setting [1]), in the test on 3T3/HER2 cells (setting [2]) and at HER2 were 15 µM, 95 µM and 1.9 µM, respectively.

`CC(C)c1cc(/C=C(\C#N)S(=O)(=O)c2ccc(F)cc2)cc(C(C)C)c1O` [Compound 741, (E)-3-(3,5-Diisopropyl-4-hydroxyphenyl)-2-(4-fluorophenylsulfonyl)acrylonitrile]: the IC50 in the test on 3T3/HER2 cells (setting [1]) was 15 µM; in the test with 3T3/HER2 cells (setting [2]), 75 µM.

On HER2, `CC(C)c1cc(/C=C(\C#N)S(=O)(=O)/C(C#N)=C/c2cc(C(C)C)c(O)c(C(C)C)c2)cc(C(C)C)c1O` [Compound 745] registered an IC50 of over 50 µM.

On to `CC(C)c1cc(/C=C(\C#N)S(=O)(=O)c2ccsc2)cc(C(C)C)c1O` [Compound 738], for which the IC50 in the test on 3T3/HER2 cells (setting [1]) was 45 µM; in the test with 3T3/HER2 cells (setting [2]) it was over 100 µM; against HER2, 1.3 µM.

Take `CC(C)c1cc(/C=C(\C#N)S(=O)(=O)c2ccccc2)cc(C(C)C)c1O` [Compound 731]: the IC50 with 3T3/HER2 cells (setting [1]) amounted to 12 µM; with 3T3/HER2 cells (setting [2]), 70 µM; on HER2, 0.3 µM.

Turning to `Cc1cc(/C=C(\C#N)S(=O)(=O)Cc2cccc(C(F)(F)F)c2)cc(C)c1O` [Compound 739], the IC50 against HER2 is 4.1 µM.

For the molecule `N#C/C(=C\c1ccc(O)cc1Cl)S(=O)(=O)NCCCc1ccccc1` [Compound 734], the values for the IC50 with 3T3/HER2 cells (setting [1]), in the test on 3T3/HER2 cells (setting [2]) and on HER2 were 55 µM, over 100 µM and 1.8 µM, respectively.

Take `Cc1cc(/C=C(\C#N)S(=O)(=O)c2ccccc2)cc(C)c1O` [Compound 748]: the IC50 in the test on 3T3/HER2 cells (setting [1]) and in the test with 3T3/HER2 cells (setting [2]) was over 100 µM each time.

In the case of `CC(C)(C)c1cc(/C=C(\C#N)S(=O)(=O)c2ccsc2)cc(C(C)(C)C)c1O` [Compound 746], the IC50 in the test on 3T3/HER2 cells (setting [1]) was found to be 7 µM; in the test on 3T3/HER2 cells (setting [2]) it was 40 µM; against HER2, 0.3 µM.

`CC(C)(C)c1cc(/C=C(\C#N)S(=O)(=O)Cc2cccc(C(F)(F)F)c2)cc(C(C)(C)C)c1O` [Compound 735]: the IC50 with 3T3/HER2 cells (setting [1]) amounted to 5 µM; in the test on 3T3/HER2 cells (setting [2]), 22 µM; against HER2, 0.3 µM.

Molecule `N#C/C(=C\c1ccc(O)c(O)c1)S(=O)(=O)c1cccs1` [Compound 743, (E)-3-(3,4-Dihydroxyphenyl)-2-[(thien-2-yl)sulfonyl]acrylonitrile] yielded an IC50 on HER2 of 12.6 µM.
